Data: patent US11091749B2, “Deimmunized lysostaphin and methods of use” (TRUSTEES OF DARTMOUTH COLLEGE, priority 2014, dated 2021)

Legend:
[1] = Thermostability by differential scanning fluorimetry; assay type: physicochemical
Experimental: The relative thermostability of the lysostaphin variants was determined by differential scanning fluorimetry, as previously described (Niesen, et al. (2007) Nat. Protocols 2:2212-2221). Proteins and SYPRO Orange were diluted in PBS (final concentrations of 100 μg/ml and 5× in 20 μl reaction volume, respectively), and fluorescence was quantified at 1-degree increments from 25 to 94° C. using an Applied Biosystems ABI 7500 fast real-time PCR system. The reactions were performed using PCR Plates for Fast Thermocyclers (VWR; Radnor, Pa.). Fluorescence was quantified using the preset TAMRA parameters. Melting temperatures were determined by data analysis with the ‘DSF Analysis v3.0.xlsx’ EXCEL sheet and GraphPad Prism v.6.02 software.

MRSA strain USA400 [2] = assay: Efficacy of F12 in recurrent systemic MRSA infections; assay type: in vivo, DR4 HLA transgenic mice; conditions: for # Treated Mice Surviving: 500 μg enzyme 1 hour later
Experimental: In a similar set of experiments, the immunogenicity and efficacy of variant F12 was compared to wild-type LST in the absence of adjuvant using DR4 HLA transgenic mice. At week 0, mice were challenged with an intraperitoneal injection of 2×10^8 MRSA strain USA400, and 1 hour later the mice were treated with 500 μg wild-type LST or 500 μg variant F12, given as a single bolus subcutaneous injection. Subsequently, mice were challenged weekly with an intraperitoneal injection of 1×10^9 MRSA strain USA400, and treated as above. Antibody titers were measured weekly beginning at week 2. […] Variant F12 rescued all mice from four recurrent, systemic, MRSA infections (Table 24). The substantially lower antibody titers elicited by variant F12 indicate that this variant is […] than wild-type LST.

MRSA strain USA400 [3] = assay: Efficacy of F13 in immunized mice, MRSA challenge; assay type: in vivo, DR4 HLA transgenic mice; conditions: 500 μg i.v. 1 h after 2×10^8 MRSA i.p.
Experimental: The immunogenicity of the F13 variant was compared to wild-type LST in DR4 HLA transgenic mice, i.e., mice bearing partially humanized immune systems. 100 μg of wild-type LST or variant F13 were mixed with complete Freund's adjuvant and injected subcutaneously into DR4 mice. Fourteen days later, antibody titers were measured by ELISA. Variant F13 yielded more than 200-fold lower antibody titers compared to wild-type LST. To assess the impact of antibody titers on antibacterial efficacy, the mice were challenged with an intraperitoneal injection of 2×10^8 MRSA strain USA400, and 1 hour later the mice were treated with 500 μg wild-type LST, variant F13, or PBS, administered as a single bolus intravenous injection. Both mice receiving PBS sham treatments died as did both mice treated with wild-type LST. In contrast, both mice treated with variant F13 survived. Thus, the reduced immunogenicity of F13 conferred enhanced therapeutic efficacy in vivo.

S. aureus cells = assay: Lytic assay using purified protein (SYTOX kinetic assay); assay type: cell-based, Staphylococcus aureus
Experimental: S. aureus cells were grown either to mid-log or to saturation in tryptic soy broth (TSB) at 37° C. with shaking. The cells were harvested by centrifugation and washed once in phosphate buffered saline (PBS: 2.7 mM KCl, 1.5 mM KH2PO4, 8.9 mM Na2HPO4, 136.9 mM NaCl, pH 7.4). The assay was performed in 96-well, black, clear bottom plates from Greiner Bio-One (Monroe, N.C.). The final (250 μl) reaction was composed of 10 μl of P. pastoris culture supernatant, S. aureus cells at OD600=1.5, and 5 μM SYTOX Green (Thermo Fisher Scientific; Waltham, Mass.), all in PBS. Data were collected using SPECTRAMAX GEMINI Fluorescence Microplate Reader (Molecular Devices; Sunnyvale, Calif.) using an excitation/emission of 504/523 nm, and rates were determined from the slope of the steepest linear portion of the trace. Each assay was performed with 500 ng of commercially-sourced lysostaphin (ssLys) as an internal control.
The activity of purified lysostaphin variants was examined using the SYTOX kinetic assay as previously described in Chapter 2, Section 3.2.6. 200 ng of purified enzyme (instead of culture supernatant) was used in each reaction.

S. aureus strain SA113 = assay: MIC activity relative to LST^WT; assay type: cell-based, Staphylococcus aureus; conditions: % fold dilution relative to wild type
Experimental: LST and its derivatives were secreted from P. pastoris. Briefly, recombinant Pichia strains were cultured in a 2.5 L bioreactor (Applicon Biotechnology), and the proteins were captured from the supernatant by polyethylene glycol-6000 (PEG-6000) precipitation and purified to homogeneity by SP SEPHAROSE F.F. cation exchange chromatography. Endotoxin was removed from the protein preparation by TRITON-X114 extraction (Liu, et al. (1997) Clin. Biochem. 30:455-63). Protein expression levels were estimated by densitometry analysis of SDS-PAGE gels.

MRSA strain USA400 [4] = assay: S. aureus recurrent bacteremia model, in vivo efficacy; set-up: species or system DR4 mice; conditions: 500 μg i.v.
Experimental: Prior to bacterial challenge, the immune systems of DR4 mice (N=3 per group) were primed 3-times with weekly subcutaneous injections of 100 μg LST^WT or Lib5 variant in sterile phosphate buffered saline (PBS: 2.7 mM KCl, 1.5 mM KH2PO4, 8.9 mM Na2HPO4, 136.9 mM NaCl, pH 7.4). These immunizations and boosts contained no adjuvant. Anti-LST antibody titers were determined as described above. For the first cycle of infection and treatment, mice were challenged with intraperitoneal administration of 2×10^8 CFU Staphylococcus aureus strain USA400 in a 3% suspension of porcine mucin, and one hour later were treated by intravenous tail vein administration of 500 μg of LST^WT or Lib5 variant in sterile PBS. Mice that were rescued by the enzyme treatment underwent subsequent infection and treatment cycles at weekly intervals. To compensate for development of innate murine antibacterial immunity following the first bacterial exposure, mice were challenged with 1×10^9 CFU USA400 in the second and third cycles, but the treatments remained at 500 μg of the appropriate protein. As a control to verify the lethal bacterial dose in each cycle, one mouse was given a sham treatment of PBS.
Using an S. aureus recurrent bacteremia model, the extent to which LST immunogenicity impacted in vivo efficacy was subsequently evaluated. […]

Substance: Wild-Type: wild-type lysostaphin (SEQ ID NO:49) produced in P. pastoris; aglycosylated Ser126Pro backbone in the design studies [reference compound]
- Tm ([1]; SYPRO Orange, PBS): 59.2 °C
- Tm ([1]; biological duplicates): 59.0 °C
- recurrent systemic MRSA infections from which mice were rescued (MRSA strain USA400 [2]; 500 μg s.c., weekly challenges, no adjuvant): four
- # Treated Mice Surviving (MRSA strain USA400 [2]; Week 0, 2×10^8 MRSA USA400 i.p., no adjuvant): 7
- # Treated Mice Surviving (MRSA strain USA400 [2]; Week 1, 1×10^9 MRSA USA400 i.p.): 6
- # Treated Mice Surviving (MRSA strain USA400 [2]; Week 2, 1×10^9 MRSA USA400 i.p.): 5
- # Treated Mice Surviving (MRSA strain USA400 [2]; Week 3, 1×10^9 MRSA USA400 i.p.): 4
- # Treated Mice Surviving (MRSA strain USA400 [2]; Week 4, 1×10^9 MRSA USA400 i.p.): 0
- survival (MRSA strain USA400 [3]): died
- % Wild-Type Activity (S. aureus cells; 200 ng purified enzyme): 100%
- % WT Lytic Rate (S. aureus cells; biological duplicates): 100 ± 30%
- Activity (% WT) (S. aureus strain SA113): 100 % WT
- rescue from infection (MRSA strain USA400 [4]; first cycle, 2×10^8 CFU i.p.): rescued
- rescue from infection (MRSA strain USA400 [4]; second cycle, 10^9 CFU): failed to rescue any of the three treated mice
